This is an account of results in US7256204B2, “Amine compounds, their production and use” (Takeda Pharmaceutical Company Limited, priority 1997, dated 2007).

Where a name gives a salt, the structure may show the parent alone.

Data set [1] concerns Aβ1-40 production and/or secretion in human neuroblastoma IMR-32 cells. The data set is described as follows: Inhibition of amyloid-β protein production in IMR-32 cells, EIA for Aβ1-40. The class given is cell-based. The conditions noted are these: test compound 10 μM, 24 hours incubation, effect to inhibit production and/or secretion as percentage relative to the control. The method, then: (§1) Compounds of the present invention were tested for effect of inhibiting amyloid-β protein production in human neuroblastoma IMR-32 cells. Herein referred to were references, Science, 264, 1336 (1994) and Biochemistry, 34, 10272 (1995), etc.
(§2) IMR-32 cells were cultivated in a flask (Falcon, 750 ml) containing 10% FCS/DMEM medium, in an atmosphere of 10% CO2/90% air, at 37° C. to be in confluence. The cultivated cells were seeded into a 48-well plate in a density of 2.5×10^5 cells/well, and incubated therein for 3 days under the same condition as above. Then, the culture medium was removed through suction.
(§3) A dimethylformamide (DMF) solution containing a test compound was dissolved in 0.5 ml of 0.5% BSA/DMEM, and added to the plate, and the cells were incubated for further 24 hours. As the control, the same volume of DMF but not containing the test compound was dissolved in 0.5 ml of 0.5% BSA/DMEM, and added to the plate. […]
(§4) The plate was washed three times with PBS, and 100 μl of an HRP-labeled secondary antibody (BA-27 antibody or BC-05 antibody labeled with HRP, horseradish peroxidase) as dissolved in a buffer for secondary reaction (20 mM phosphate buffer, pH 7.0; 400 mM NaCl; 2 mM EDTA; 1% BSA) was added thereto. […] Then, using a plate reader (MTP-32 Microplate Reader, by Corona Co.), the sample on the plate was subjected to calorimetric determination (at 450 nm). […]

For data set [2], the system named is Aβ1-42 production and/or secretion in human neuroblastoma IMR-32 cells. In words: Inhibition of amyloid-β protein production in IMR-32 cells, EIA for Aβ1-42. The class given is cell-based. The conditions noted are these: test compound 10 μM, 24 hours incubation, effect to inhibit production and/or secretion as percentage relative to the control. As to the method:
as §1, §2, §3, §4

For another data set, the system named is mouse. The data set is described as follows: Experiment of acute toxicity, oral administration. The conditions noted are these: dose of more than 1000 mg/kg. In kind it is in vivo. From the text:
In addition, compounds (I) and (I′) have low toxicity. […] Moreover, compounds (I) and (I′) easily penetrate into the brain following the oral administration.

For the compound `COc1ccc(-c2cccc(COc3ccc4c(c3)CCC(CN(C)C)C4)c2)cc1.Cl` (stereo not shown), the melting point was in the range of 182 to 183 °C.
`Cc1ccc(-c2ccc(COc3ccc4c(c3)CCC(CN(C)C)C4)cc2)cc1.Cl` (stereo not shown) gave a melting point of 226 to 228 °C.
`CN(C)CC1CCc2cc(OCc3cccc(-c4ccccc4)c3)ccc2C1.Cl` (stereo not shown): the melting point lay within 186 to 190 °C.
In turn, `c1ccc(-c2ccc(COc3ccc4c(c3)CCC(CCN3CCC(N5CCCCC5)CC3)C4)cc2)cc1` (stereo not shown) (as salt: hydrochloride) registered a melting point of 288 to 291 °C.
`COc1ccc(-c2ccc(COc3ccc4c(c3)CCC(CCN(C)C)C4)cc2)cc1.Cl` (stereo not shown) [44] yielded a melting point of 182 to 185 °C.
For `CNCC1CCc2cc(OCc3ccc(-c4ccccc4)cc3)ccc2C1.Cl` (stereo not shown), the melting point lay in the range of 189 to 190 °C.
`CC(=O)N(Cc1ccc(-c2ccccc2)cc1)c1ccc2c(c1)CCC(CN(C)C)C2.Cl` (stereo not shown) gave a melting point of 179 to 182 °C.
The compound `CN(C)CC1CCc2cc(OCc3ccc(-c4ccccc4C#N)cc3)ccc2C1.Cl` (stereo not shown) returned a melting point of 202 to 203 °C.
`CN(C)CC1CCc2cc(OCc3ccc4ccccc4c3)ccc2C1.Cl` (stereo not shown) had a melting point of 228 to 229 °C.
On the same count and under the same terms, the same measure for `Cl.OC1(O)CCN(CCC2CCc3cc(OCc4ccc(-c5ccccc5)cc4)ccc3C2)CC1` (stereo not shown): 155 to 156 °C.
On to `Cl.c1ccc2cc(COc3ccc4c(c3)CCC(CN3CCCCC3)C4)ccc2c1` (stereo not shown), for which the melting point was 215 to 218 °C (dec.).
Compound `COc1cccc(-c2ccc(COc3ccc4c(c3)CCC(CN(C)C)C4)cc2)c1.Cl` (stereo not shown) returned a melting point of 207 to 208 °C.
Same read-out and setting: the figure for `CN(C)CC1CCc2cc(OCc3ccc(-c4cccc([N+](=O)[O-])c4)cc3)ccc2C1.Cl` (stereo not shown) is 223 to 234 °C.
Compound `CN(C)CC1CCc2cc(OCc3ccc(-c4cccs4)cc3)ccc2C1.Cl` (stereo not shown) showed a melting point of 227 to 228 °C.
`CN(C)CC1CCc2cc(OCc3ccc(-c4cc(C(F)(F)F)cc(C(F)(F)F)c4)cc3)ccc2C1.Cl` (stereo not shown): the melting point lay within 196 to 197 °C.
On the same count and under the same terms, the figure for `CN(C)CC1CCc2cc(OCc3ccc(-c4cccnc4)cc3)ccc2C1` (stereo not shown) (as salt: hydrochloride) is 212 to 213 °C; for `CN(C)CC1CCc2ccc(OCc3ccc4ccccc4c3)cc2C1.Cl` (stereo not shown) it is 201 to 202 °C; for `CN(C)CC1CCc2cc(OCc3ccc(-c4ccsc4)cc3)ccc2C1.Cl` (stereo not shown) it is 222 to 223 °C.
On the same count and under the same terms, the same measure for `CSc1ccc(-c2ccc(COc3ccc4c(c3)CCC(CN(C)C)C4)cc2)cc1.Cl` (stereo not shown): 235 to 237 °C.
Still for that read-out and setting: the same measure for `CN(C)CC1CCc2cc(OCc3ccc(-c4ccc(C=O)cc4)cc3)ccc2C1.Cl` (stereo not shown): 234 to 235 °C; for `Cl.c1ccc(C2CCN(CCC3CCc4cc(OCc5ccc6ccccc6c5)ccc4C3)CC2)cc1` (stereo not shown): 229 to 234 °C (dec.).
For `CN(C)CC1CCc2ccc(OCc3ccc(-c4ccccc4)cc3)cc2C1.Cl` (stereo not shown), the melting point lay within 232 to 233 °C.
Consider `Cl.c1ccc(-c2ccc(COc3ccc4c(c3)CCC(CCN3CCCC3)C4)cc2)cc1` (stereo not shown), for which the melting point lay within 197 to 199 °C.
The same measure, in the same setting: the figure for `CN(C)CCCCC1CCc2cc(OCc3ccc(-c4ccccc4)cc3)ccc2C1.Cl` (stereo not shown) is 175 to 177 °C; for `COc1ccc(-c2ccccc2COc2ccc3c(c2)CCC(CN(C)C)C3)cc1.Cl` (stereo not shown) it is 170 to 171 °C; for `CN(C)CC1CCc2cc(OCc3ccccc3-c3ccc(F)cc3)ccc2C1.Cl` (stereo not shown) it is 172 to 174 °C.
In the case of `CCCN(CCC)CC1CCc2cc(OCc3ccc(-c4ccccc4)cc3)ccc2C1.Cl` (stereo not shown), the melting point lay within 164 to 166 °C.
Same read-out and setting: the figure for `COc1ccccc1-c1ccc(COc2ccc3c(c2)CCC(CN(C)C)C3)cc1.Cl` (stereo not shown) is 140 to 141 °C; for `CN(C)CC1CCc2cc(OCc3ccc(-c4ccc(F)cc4)cc3)ccc2C1.Cl` (stereo not shown) it is 223 to 234 °C.
For `CN(C)CCC1CCc2cc(OCc3ccc(-c4ccccc4)cc3)ccc2C1.Cl` (stereo not shown) [Example 12, 6-(4-Biphenylyl)methoxy-2-[2-(N,N-dimethylamino)ethyl]tetralin hydrochloride], in data set [1], the “Aβ1–40 (%)” value is on record as 74%. For the same compound, the “Aβ1–42 (%)” value in data set [2] was found to be 75%. The “acute toxicity (death)” value in the data set on mouse was “no mouse was dead”.
`CN(C)CC1CCc2cc(OCc3cccc(-c4ccc(F)cc4)c3)ccc2C1.Cl` (stereo not shown): the melting point fell in the range of 171 to 172 °C.
Compound `CN(C)CC1CCc2cc(OCc3ccccc3-c3ccccc3)ccc2C1.Cl` (stereo not shown) registered a melting point of 173 to 174 °C.
